1 compound from patent US20140004499A1, “BIOSURFACE ENGINEERING” (priority 2011, published 2014) can be followed below.

Series [1] has as its system red blood cells (RBCs). Description: Localisation of biotin to RBC surface by attachment of avidinylated beads (DYNABEADS M-280). It is filed as cell-based. Here is the method:
(§1) The use of aqueous solutions of the construct designated Biotin-S3-S4-S2-chol (III) and the construct designated Biotin-S3-S4-S5-DOPE (IV) in the localisation of biotin (F) to cell surfaces was also compared. Solutions of the two constructs were prepared at substantially equimolar concentrations. The use of the solutions was assessed across a concentration range from 0 to 500 μM (0.5 mM). A 0.5 mM solution of the construct designated Biotin-S3-S4-S2-chol (III) was prepared by dissolving 0.4 mg of the construct in 514 μL of PBS. […] A 0.5 mM stock solution of the construct designated Biotin-S3-S4-S5-DOPE (IV) was prepared by dissolving 2 mg of the construct in 1942 μL of phosphate buffered saline (PBS). Each 0.5 mM solution was warmed to 37° C. for 10 minutes, vortexed and sonicated for 30 seconds to ensure complete dissolution of the construct in the aqueous medium. A dilution series was prepared for each construct to provide a total volume of 100 μL at each of the following concentrations: […]. Equal volumes (40 μL) of packed, washed red blood cells (RBCs) and solutions of constructs at different concentrations were mixed in a glass kimble tube. […]
(§2) Two equal volumes were taken from each tube and centrifuged (300×g for 2 minutes) to provide two equivalent packed cells volumes for further evaluation. One of each pair of equivalent packed cell volumes was evaluated for localisation of the biofunctional moiety biotin to the surface of the RBCs by conjugation with avidin ALEXAFLUOR™. One of each pair of the equivalent packed cell volumes was evaluated for localisation of the biofunctional moiety biotin to the surface of the RBCs by conjugation to avidinylated beads (DYNABEADS™ M-280).
Conjugation with avidinylated beads (DYNABEADS™ M-280) was performed. […] The attachment of beads to cells was scored at 400× and 800× magnification on a compound microscope. An estimate of the number of beads and the presence of cell clusters was recorded for each group and compared with a negative control.

Series [2] in a line: Dissolution of construct in PBS. The format is physicochemical. The conditions noted are these: 0.5 mM: 0.4 mg in 514 μL of PBS. As for the experimental part: as §1, with “tube. The tubes were incubated at 37° C. for 20 minutes in a water bath with periodic (3 x) agitation.” for “tube.”
Series [3] relates to red blood cells (RBCs). Description: Localisation of biotin to RBC surface by conjugation with avidin ALEXAFLUOR (fluorescence microscopy). The format is cell-based. Further details: key to fluorescent signal intensity grade: 1 (low); 2 (moderate); 3 (bright); 4 (very bright). As for the experimental part: The use of aqueous solutions of the construct designated Biotin-S3-S4-S2-chol (III) and the construct designated Biotin-S3-S4-S5-DOPE (IV) in the localisation of biotin (F) to cell surfaces was also compared. Solutions of the two constructs were prepared at substantially equimolar concentrations. The use of the solutions was assessed across a concentration range from 0 to 500 μM (0.5 mM). A 0.5 mM solution of the construct designated Biotin-S3-S4-S2-chol (III) was prepared by dissolving 0.4 mg of the construct in 514 μL of PBS. […] A 0.5 mM stock solution of the construct designated Biotin-S3-S4-S5-DOPE (IV) was prepared by dissolving 2 mg of the construct in 1942 μL of phosphate buffered saline (PBS). Each 0.5 mM solution was warmed to 37° C. for 10 minutes, vortexed and sonicated for 30 seconds to ensure complete dissolution of the construct in the aqueous medium. A dilution series was prepared for each construct to provide a total volume of 100 μL at each of the following concentrations: […]. Equal volumes (40 μL) of packed, washed red blood cells (RBCs) and solutions of constructs at different concentrations were mixed in a glass kimble tube. The tubes were incubated at 37° C. for 20 minutes in a water bath with periodic (3 x) agitation. The incubated cells were washed 3× with PBS before being resuspended in a cell preservative (CELPRESOL™) for storage at 4° C. overnight.
as §2
Conjugation with avidin ALEXAFLUOR™ was evaluated as described in the publication of Oliver et al (2011). An aliquot containing 0.02 mg avidin ALEXAFLUOR™ was mixed with a volume ([…]) of PBS containing BSA to provide a 0.1 mg/mL solution. Equal volumes 20 μL of packed RBCs and the solution of avidin ALEXAFLUOR™ were mixed and incubated at 37° C. for 30 minutes. The cells were then washed 3× with PBS before placing a drop (10 μL) on a glass microscope slide for fluorescent microscopy (WIB filter at 400× magnification). Cells were graded for fluorescence intensity over two micrograph fields of view. Grades determined via the eye piece were correlated with the corresponding photomicrographs (1.9 sec exposure). Grades were assigned according to the following scale: 1 (low), 2 (moderate), 3 (bright) and 4 (very bright). The morphology of the cells was also recorded (“normal” or “poiked”).

SMILES strings stand for the structures.

Consider `CC(C)CCC[C@@H](C)[C@H]1CC[C@H]2[C@@H]3CC=C4C[C@@H](OC(=O)NCCCCC(=O)NCC(=O)NCC(=O)N(CC(=O)[O-])CC(=O)NCC(=O)NCC(=O)N(CC(=O)[O-])CC(=O)NCCNC(=O)CN(CC(=O)[O-])C(=O)CNC(=O)CNC(=O)CN(CC(=O)[O-])C(=O)CNC(=O)CNC(=O)CCCC[C@@H]5SC[C@@H]6NC(=O)N[C@@H]65)CC[C@]4(C)[C@H]3CC[C@]12C.[Na+].[Na+].[Na+].[Na+]` [Biotin-S3-S4-S2-chol (III)], for which the “attachment of avidinylated beads, comparison of the two constructs” value with red blood cells (RBCs) [1] is reported as “comparable results”. In addition, the “number of beads attached to each RBC and clustering of RBCs into groups, relative to the other construct” value in the series with red blood cells (RBCs) [1] (25 μM construct) was “slightly greater”. The “dissolution in PBS” value in series [2] was “readily dissolved to provide a clear solution”. Besides, in the series with red blood cells (RBCs) [3] (100 and 500 μM), the “staining at higher concentrations” value was “poor staining”. The “homogeneity of modification of cell surface” value in the series on red blood cells (RBCs) [3] (compared with Biotin-S3-S4-S5-DOPE (IV)) is “more homogenous modification over the entire cell surface and lesser inter-cell variation”. For the same compound, the “fluorescent signal intensity grade” value with red blood cells (RBCs) [3] (constructs at concentrations of 10 and 25 μM, avidin ALEXAFLUOR) is 2. For the same compound, in the series on red blood cells (RBCs) [3] (lower concentration ranges (5 to 75 μM)), the “fluorescent signal intensity relative to cells prepared using Biotin-S3-S4-S5-DOPE (IV)” value is “moderately lower”.
